# From paper PMC11530130, “Peripherally restricted PICK1 inhibitor mPD5 ameliorates pain behaviors in murine inflammatory and neuropathic pain models” (JCI Insight, 2024)
# Values joined by “and” are separate entries in the source; they are usually repeats but may differ in a detail not shown here. Equal entries are not always repeated.
# Experiments:
# [1] = Stability of mPD5 in PBS, 30 days at 5 °C and 25 °C, HPLC-UV-MS
# Description: SUPPORTING INFORMATION: Method Section.
# Sex as a biological variable.
# All peptides were ordered from WuXI AppTec (Shanghai, China) or TAG-Copenhagen […]
# Assessment of solubility and stability of mPD5.
# Solubility was determined by visual inspection of samples dissolved in increasing concentration in 10 mM PBS as judged by full transparency and monophasic appearance.
# Stability was addressed by […] for four concentrations (2, 20, 50, and 200 µM), by leaving mPD5 in PBS at 5 °C and 25 °C for 30 days followed by HPLC-UV-MS. […]
# Superdex200 Increase 10/300.
# [2] = system: mice, CFA model of inflammatory pain; experiment: CFA model, marble-burying test; format: in vivo, mouse
# Description: Induction of inflammatory pain (CFA model).
# Injury was induced on the right hind paw, whereas the contralateral left hind paw was used as internal control of the C57BL/6J male and female mice (Janvier, France). The inflammatory pain was induced by injection of 50 μL undiluted Complete Freund’s Adjuvant (CFA) (F5881, Sigma) unilaterally into the intraplantar surface of the right hind paw, whereas control mice were injected with the same amount of 0.9 % saline (B. Braun, Germany). All intraplantar injections were performed with an insulin needle (0.3 mL BD Micro-Fine) while the animal was under isoflurane anaesthesia (2%) for maximum 60 seconds. Von Frey was applied up to 11 days after unilateral CFA injection depending on the experiment. […]
# For the first experiment with sustained administration of mPD5 (Figure 7C), the mice underwent a baseline von Frey reading as described in the “Mechanically-evoked pain (von Frey).”-section and SNI surgery as described in “Induction of neuropathic pain (SNI model).”-section. […] At 4,5 hours after the 10 μmol/kg mPD5 injection paw withdrawal threshold was measured again followed by a s.c. injection of 2 μmol/kg mPD5 in all animals. The PWT was measured again at 6 hours +7 hours + 8 hours + 9 hours + 10 hours + 11 hours + 22 hours + 23 hours + 25 hours + 27 hours + 49 hours + 121 hours after the initial 10 μmol/kg mPD5 injection performed on day 125. […]
# [3] = system: mice, spared nerve injury (SNI) model; experiment: SNI model, marble-burying test; format: in vivo, mouse
# Description: solution (0.05 mg/kg) injected s.c. 30 min before surgery (10 μL/g). For surgery, mice were anaesthetised with ketamine (100 mg/kg, i.p.) and xylazine (10 mg/kg, i.p.) (volume 10 µL/g) with 100 μL of 1% xylocaine solution infiltrated at the site of the incision. The distal trifurcation of the sciatic nerve was identified, and the tibial and common peroneal branches were ligated with polypropylene nonabsorbable 6-0 sutures (Ethicon) and 1 mm was cut out, leaving the sural branch intact. The wound was closed with sutures, and the animals were allowed to recover and returned to their cages. Two subcutaneous injections of buprenorphine (0.05 mg/kg) were performed with an 8 to 12 hours delay decreasing pain due to the surgery […]
# Wounds were closed with surgical glue or medical clips and animals were monitored daily for signs of stress or discomfort, but in all cases recovered uneventfully. […]
# For the first experiment with sustained administration of mPD5 (Figure 7C), the mice underwent a baseline von Frey reading as described in the “Mechanically-evoked pain (von Frey).”-section and SNI surgery as described in “Induction of neuropathic pain (SNI model).”-section. […] At 4,5 hours after the 10 μmol/kg mPD5 injection paw withdrawal threshold was measured again followed by a s.c. injection of 2 μmol/kg mPD5 in all animals. […]
# [4] = 30 days 5°C, nominal conc. 2 μM
# [5] = 30 days 5°C, nominal conc. 20 μM
# [6] = 30 days 5°C, nominal conc. 50 μM
# [7] = 30 days 5°C, nominal conc. 200 μM
# [8] = 30 days 25°C, nominal conc. 2 μM
# [9] = 30 days 25°C, nominal conc. 20 μM
# [10] = 30 days 25°C, nominal conc. 50 μM
# [11] = 30 days 25°C, nominal conc. 200 μM
smiles,measurement,setting,value
"CCCCCCCCCCCCCC(=O)N(CCOCCOCCC(=O)N[C@@H](Cc1c[nH]cn1)C(=O)N[C@@H](Cc1c[nH]c2ccccc12)C(=O)N[C@@H](CC(C)C)C(=O)N[C@@H](CCCCN)C(=O)N[C@H](C(=O)O)C(C)C)CCOCCOCCC(=O)N[C@@H](Cc1c[nH]cn1)C(=O)N[C@@H](Cc1c[nH]c2ccccc12)C(=O)N[C@@H](CC(C)C)C(=O)N[C@@H](CCCCN)C(=O)N[C@H](C(=O)O)C(C)C [mPD5, myristoyl-NPEG4-(HWLKV)2]",Measured conc. mPD5,[1]; [4],0.5 µM
same,UV-HPLC peak area,[1]; [4],37
same,pH,[1]; [4],7.37
same,Measured conc. mPD5,[1]; [5],17 µM
same,UV-HPLC peak area,[1]; [5],1196
same,pH,[1]; [5],7.40
same,Measured conc. mPD5,[1]; [6],49 µM
same,UV-HPLC peak area,[1]; [6],3347
same,pH,[1]; [6],7.39
same,Measured conc. mPD5,[1]; [7],194 µM
same,UV-HPLC peak area,[1]; [7],6665
same,pH,[1]; [7],7.37
same,Measured conc. mPD5,[1]; [8],0.4 µM
same,UV-HPLC peak area,[1]; [8],26
same,pH,[1]; [8],7.37
same,Measured conc. mPD5,[1]; [9],17 µM
same,UV-HPLC peak area,[1]; [9],1161
same,pH,[1]; [9],7.39
same,Measured conc. mPD5,[1]; [10],48 µM
same,UV-HPLC peak area,[1]; [10],3325
same,pH,[1]; [10],7.41
same,Measured conc. mPD5,[1]; [11],203 µM
same,UV-HPLC peak area,[1]; [11],7005
same,pH,[1]; [11],7.36
same,shelf stability,"[1]; PBS, 30 days, 5°C and 25°C",excellent shelf stability
same,effect on CFA-induced decrease in marble burying,"[2]; 10 μmol/kg, to the level of the naive mice",reverted significantly
same,"marbles buried, individual mice",[2]; 1 hour after s.c. 10 μmol/kg,6 and 9 and 10 and 11 and 7 and 4 and 5
same,"marbles buried, individual mice",[3]; 1 hour after s.c. 10 μmol/kg,6 and 7 and 9 and 8 and 3 and 1 and 5
same,effect on SNI-induced decrease in marble burying,"[3]; female mice, s.c. 10 μmol/kg, to the level of the naive mice",reverted significantly
